Measurements reported in patent US11773129B2, “Methods of preventing or treating atherosclerosis with inhibitors of specific isoenzymes of human neuraminidase” (THE GOVERNORS OF THE UNIVERSITY OF ALBERTA, priority 2017, dated 2023).

Columns and labels:
Format in all cases: biochemical
[1] = molecular target: T1, NEU1 (Homo sapiens, UniProt Q99519); test: IC50 inhibition assay using 4MU-NANA as the substrate, NEU1; details: 4MU-NANA as the substrate; read-out: IC50 NEU1
T1 construct: made in house; host or cells: HEK293 (lentiviral transduction), crude lysate
Description: Two weeks after transduction cells were harvested and a crude lysate showing ˜200 nmol/h mg of sialidase activity used in experiments.
Assays were performed with duplicates for each point and IC50 was obtained by plotting the data with Graphpad™ Prism 5.0.

[2] = tested on: NEU1, NEU2, NEU3, NEU4; test: Isoenzyme specificity/selectivity from 4MU-NANA IC50 across the four human neuraminidases; details: for Target: isoenzyme(s) the compound is specific for, dual (bispecific) when ratio of IC50 is about 3 or less
[3] = molecular target: T2, NEU4 (Homo sapiens, UniProt Q8WWR8); test: IC50 inhibition assay using 4MU-NANA as the substrate, NEU4; set-up: GST; made in house; host or cells: E. coli; details: 4MU-NANA as the substrate; read-out: IC50 NEU4
T2 sequence (Q8WWR8 1-484): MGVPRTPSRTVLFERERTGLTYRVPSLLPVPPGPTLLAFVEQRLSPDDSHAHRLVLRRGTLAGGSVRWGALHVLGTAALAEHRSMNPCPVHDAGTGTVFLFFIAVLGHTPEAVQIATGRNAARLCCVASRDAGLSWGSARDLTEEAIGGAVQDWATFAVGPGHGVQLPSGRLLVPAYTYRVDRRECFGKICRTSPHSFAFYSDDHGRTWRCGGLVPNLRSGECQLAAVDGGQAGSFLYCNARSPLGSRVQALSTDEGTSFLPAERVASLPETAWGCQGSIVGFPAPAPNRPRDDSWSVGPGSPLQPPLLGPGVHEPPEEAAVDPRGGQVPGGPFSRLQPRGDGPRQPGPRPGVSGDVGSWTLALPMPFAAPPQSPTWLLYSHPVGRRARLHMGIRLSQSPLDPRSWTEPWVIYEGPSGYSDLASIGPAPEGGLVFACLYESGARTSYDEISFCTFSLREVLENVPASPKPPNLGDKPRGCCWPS

[4] = molecular target: T3, NEU3 (Homo sapiens, UniProt Q9UQ49); test: IC50 inhibition assay using 4MU-NANA as the substrate, NEU3; set-up: MBP (N); made in house; host or cells: E. coli; details: 4MU-NANA as the substrate; read-out: IC50 NEU3
T3 sequence (Q9UQ49 1-428): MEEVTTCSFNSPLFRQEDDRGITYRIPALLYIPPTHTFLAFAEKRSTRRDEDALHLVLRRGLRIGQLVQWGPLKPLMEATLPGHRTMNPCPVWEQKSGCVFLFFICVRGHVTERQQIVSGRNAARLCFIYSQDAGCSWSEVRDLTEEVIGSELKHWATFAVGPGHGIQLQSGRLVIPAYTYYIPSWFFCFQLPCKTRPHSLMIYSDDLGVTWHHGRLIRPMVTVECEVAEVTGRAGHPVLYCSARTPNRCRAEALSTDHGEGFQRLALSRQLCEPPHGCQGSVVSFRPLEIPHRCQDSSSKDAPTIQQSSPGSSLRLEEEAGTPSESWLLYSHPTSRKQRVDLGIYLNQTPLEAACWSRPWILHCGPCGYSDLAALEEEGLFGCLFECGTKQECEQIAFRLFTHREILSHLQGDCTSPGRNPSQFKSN

| IC50 [1] [µM] | Target [2] | IC50 [3] [µM] | IC50 [4] [µM] | Selectivity ([2]; from 4MU-NANA IC50, for the isoenzyme(s) in column Target) | SMILES |
| --- | --- | --- | --- | --- | --- |
| 240 ± 90 | NEU3/ NEU4 | 3 ± 0.3 | 1.1 ± 0.1 |  | CC(=O)N[C@@H]1C(O)C=C(C(=O)O)OC1C(O)C(O)Cn1cc(-c2ccc(C(=O)O)cc2)nn1 (some centres unmarked) [7h] |
| 51 ± 7 | NEU3/ NEU4 | 3.9 ± 0.4 | 8.2 ± 1.3 |  | CC(=O)N[C@H]1[C@H]([C@H](O)[C@H](O)Cn2cc(-c3ccc(C)cc3)nn2)OC(C(=O)O)=C[C@@H]1O [7d] |
| 100 ± 40 | NEU4 | 1.3 ± 0.2 | 17 ± 2 | 10 | CC(=O)N[C@H]1[C@H]([C@H](O)[C@H](O)Cn2cc(-c3ccc(F)cc3)nn2)OC(C(=O)O)=C[C@@H]1O [7f] |
| 59 ± 5 | NEU3/ NEU4 | 11 ± 1 | 5.5 ± 0.5 |  | CC(=O)Nc1ccc(-c2cn(C[C@@H](O)[C@@H](O)[C@@H]3OC(C(=O)O)=C[C@H](O)[C@H]3NC(C)=O)nn2)cc1 [7b] |

More lines, now with the values behind:

| SMILES | IC50 [1] [µM] | Target [2] | IC50 [3] [µM] | IC50 [4] [µM] | Selectivity ([2]; from 4MU-NANA IC50, for the isoenzyme(s) in column Target) |
| --- | --- | --- | --- | --- | --- |
| CC(=O)Nc1cccc(C(=O)NC[C@@H](O)[C@@H](O)[C@@H]2OC(C(=O)O)=C[C@H](O)[C@H]2NC(C)=O)c1 [compound 60, 5-Acetamido-9-(3-acetamido)benzamido-2,6-anhydro-3,5-dideoxy-d-glycero-d-galacto-non-2-enonic acid] | 6.5 ± 1.1 | NEU1/ NEU3 | 52 ± 9 | 7.1 ± 0.7 |  |
| O=C(Cn1cc(-c2ccc(C(F)(F)F)cc2)nn1)N[C@@H]1C(O)C=C(C(=O)O)OC1C(O)C(O)CO (some centres unmarked) [compound 41] | > 500 | NEU2 | 300 ± 60 | > 500 |  |
| CCCCCCC(=O)NCC(O)C(O)C1OC(C(=O)O)=CC(O)[C@H]1NC(C)=O (stereo partly drawn) [compound 52, 5-Acetamido-9-heptanamido-2,6-anhydro-3,5-dideoxy-D-glycero-D-galacto-non-2-enonic acid] | 9.9 ± 1.3 | NEU1 | 310 ± 30 | 39 ± 8 |  |
| O=C(Cn1cc(-c2ccc(F)cc2)nn1)N[C@@H]1C(O)C=C(C(=O)O)OC1C(O)C(O)CO (some centres unmarked) [compound 45] | > 500 | NEU2 | 100 ± 20 | 240 ± 40 |  |
| CCCCCCC(=O)N[C@H]1[C@H]([C@H](O)[C@H](O)CO)OC(C(=O)O)=C[C@@H]1O [compound 33, 5-Heptanamido-2,6-anhydro-3,5-dideoxy-D-glycero-D-galacto-non-2-enonic acid] | 2.1 ± 0.2 | NEU1 | 470 ± 200 | 210 ± 70 |  |
| O=C(O)C1=C[C@H](O)[C@@H](NC(=O)C2CC2)[C@H]([C@H](O)[C@H](O)CO)O1 [compound 37, 5-Cyclopropanecarboxamido-2,6-anhydro-3,5-dideoxy-D-glycero-D-galacto-non-2-enonic acid] | 6.9 ± 0.4 | NEU1 | 150 ± 40 | 170 ± 40 |  |
| CCCCC(=O)NC[C@@H](O)[C@@H](O)[C@@H]1OC(C(=O)O)=C[C@H](O)[C@H]1NC(=O)CC [compound 65, 5-Propionamido-9-pentanamido-2,6-anhydro-3,5-dideoxy-D-glycero-D-galacto-non-2-enonic acid] | 1.6 ± 0.2 | NEU1 | 190 ± 70 | > 500 |  |
| CCCCC(=O)NCC(O)C(O)C1OC(C(=O)O)=CC(O)[C@H]1NC(=O)CCCC (stereo partly drawn) [compound 57, 5-Pentanamido-9-pentanamido-2,6-anhydro-3,5-dideoxy-D-glycero-D-galacto-non-2-enonic acid] | 1.5 ± 0.2 | NEU1 | > 500 | > 500 |  |
| COc1ccc(-c2cn(CC(=O)N[C@@H]3C(O)C=C(C(=O)O)OC3C(O)C(O)CO)nn2)cc1 (some centres unmarked) [compound 44] | > 500 | NEU2 | 87 ± 14 | > 500 |  |
